Assay results published in US10266542B2, “EZH2 inhibitors” (priority 2017, dated 2019).
Like-named read-outs stand apart in the source and are kept apart here.

Tests used:
purified EZH2 enzyme = purified EZH2 enzyme (Homo sapiens (Human), UniProt Q15910); assay: biochemical; conditions: purified EZH2, 4 μM SAM, histone 3.3 substrate, 30° C. three hours, fluorescence polarization readout
[1] = system: EZH2-mediated histone H3 Lys27 trimethylation in Pfeiffer cells (mutant EZH2 A677G); assay: Tri-Methyl Histone H3 (Lys 27) Sandwich ELISA in Pfeiffer cells; type: cell-based, human
Description: Briefly, Pfeiffer cells were cultured in RPMI medium supplemented with 10% fetal bovine serum and 1% penicillin and 1% streptomycin in 96 well culture plates at 37° C. to a density of 8000 cells/90 μl/well and the cells were harvested. […] The plates were incubated at 37° C. for 96 hours.
After incubation, the cells were pelleted by centrifugation in a pre-cooled 4° C. rotor at 1,100 rpm for 10 min and the supernatant was removed by aspiration. The cell pellet was resuspended in 55 μl of Lysis Buffer (0.4M HCl) and incubated on ice with periodic shaking for 30 minutes. The lysed cells were subjected to centrifugation at 4,200 rpm for 10 min at 4° C. and the supernatant containing acid-soluble proteins was collected and the remainder discarded.
A 65 μl aliquot of each cell lysate was added to a well of a microwell strip, the microwells were sealed using tape and incubated either at 37° C. for two hours or at 4° C. overnight. After incubation, the tape was removed at the microwells were washed four times using 200 μl of 1× Wash Buffer. To each washed microwell, a 100 μl aliquot of an anti-trimethyl histone H3 Lys27 Detection Antibody solution was added and the microwells were incubated at 37° C. for one hour. The Detection Antibody solution was removed by aspiration and the wells were washed four times each using 200 μl of 1× Wash Buffer.
A 100 μl aliquot of an HRP-linked secondary antibody was added to each well, the wells were sealed with tape and incubated at 37° C. for 30 min. The HRP-linked secondary antibody solution was removed by aspiration and the wells were washed four times using 200 μl of 1× Wash Buffer. A 100 μl aliquot of a TMB substrate was added to each well, the wells were sealed with tape and incubated at 37° C. for 10 min or 25° C. for 30 min. The reaction was stopped by the addition of 100 μl aliquot of a STOP solution and the plate was shaken briefly. The degree of histone H3 trimethylation was determined using a spectrophotometric readout by measuring the absorbance at 450 nm and then calculating the amount of trimethylated histone H3.

[2] = Pfeiffer cells (DLBCL, EZH2 A677G), 96 hours incubation, H3K27me3 ELISA, absorbance at 450 nm, read-out: IC50
[3] = Homo sapiens, Pfeiffer cells (DLBCL, EZH2 A677G), 96 hours incubation, H3K27me3 ELISA, absorbance at 450 nm, read-out: IC50

Compound | IC50 (purified EZH2 enzyme) [nM] | IC50 [1, 2] [nM] | IC50 ([1]; Homo sapiens, Pfeiffer, 96 h) [nM] | IC50 [1, 3] [nM]
5,8-dichloro-7-(3,5-dimethyltriazol-4-yl)-2-[(7-methyl-5-oxo-1,6-dihydropyrrolo[2,3-c]pyridin-4-yl)methyl]-3,4-dihydroisoquinolin-1-one [Example 15] | 2 | 6 |  | 
7-[[5-bromo-8-chloro-7-(3,5-dimethyltriazol-4-yl)-1-oxo-3,4-dihydroisoquinolin-2-yl]methyl]-4-methyl-5H-furo[3,2-c]pyridin-6-one [Example 7] | 3 | 30 |  | 
Cc1[nH]c(=O)c(CN2CCc3c(Cl)cc(OC(C)C)c(Cl)c3C2=O)c2occc12 [Example 1, 7-((5,8-dichloro-7-isopropoxy-1-oxo-3,4-dihydroisoquinolin-2(1H)-yl)methyl)-4-methylfuro[3,2-c]pyridin-6(5H)-one] | 6 |  | 759 | 
Cc1[nH]c(=O)c(CN2CCc3c(Cl)cc(N4CC5(CCOCC5)C4)c(Cl)c3C2=O)c2occc12 [Example 2, 7-((5,8-dichloro-1-oxo-7-(7-oxa-2-azaspiro[3.5]nonan-2-yl)-3,4-dihydroisoquinolin-2(1H)-yl)methyl)-4-methylfuro[3,2-c]pyridin-6(5H)-one] | 5 |  |  | 273
CCN(c1cc(Cl)c2c(c1Cl)C(=O)N(Cc1c(=O)[nH]c(C)c3ccoc13)CC2)C1CCOCC1 [Example 3, 7-((5,8-dichloro-7-(ethyl(tetrahydro-2H-pyran-4-yl)amino)-1-oxo-3,4-dihydroisoquinolin-2(1H)-yl)methyl)-4-methylfuro[3,2-c]pyridin-6(5H)-on] | 5 |  |  | 31
Cc1[nH]c(=O)c(CN2CCc3c(Cl)cc(OC(C)C)c(Cl)c3C2=O)c2cc[nH]c12 [Example 4, 5,8-dichloro-7-isopropoxy-2-((7-methyl-5-oxo-5,6-dihydro-1H-pyrrolo[2,3-c]pyridin-4-yl)methyl)-3,4-dihydroisoquinolin-1(2H)-one] | 202 |  |  | 1040
Cc1[nH]c(=O)c(CN2CCc3c(Cl)cc(N4CC5(CCOCC5)C4)c(Cl)c3C2=O)c2cc[nH]c12 [Example 5, 5,8-dichloro-2-((7-methyl-5-oxo-5,6-dihydro-1H-pyrrolo[2,3-c]pyridin-4-yl)methyl)-7-(7-oxa-2-azaspiro[3.5]nonan-2-yl)-3,4-dihydroisoquinolin-1(2H)-one] | < 0.5 |  |  | 17
Cc1[nH]c(=O)c(CN2CCc3ccc(OC(C)C)c(Cl)c3C2=O)c2occc12 [Example 6, 7-((8-chloro-7-isopropoxy-1-oxo-3,4-dihydroisoquinolin-2(1H)-yl)methyl)-4-methylfuro[3,2-c]pyridin-6(5H)-one] | 7 |  |  | 44
Cc1cc2c(C)[nH]c(=O)c(CN3CCc4c(Cl)cc(OC(C)C)c(Cl)c4C3=O)c2o1 [Example 8, 7-((5,8-dichloro-7-isopropoxy-1-oxo-3,4-dihydroisoquinolin-2(1H)-yl)methyl)-2,4-dimethylfuro[3,2-c]pyridin-6(5H)-one] | 95 |  |  | 
COC(c1cc(Cl)c2c(c1Cl)C(=O)N(Cc1c(=O)[nH]c(C)c3ccoc13)CC2)C1COC1 (centres unmarked) [Example 9, 7-((5,8-dichloro-7-(methoxy(oxetan-3-yl)methyl)-1-oxo-3,4-dihydroisoquinolin-2(1H)-yl)methyl)-4-methylfuro[3,2-c]pyridin-6(5H)-one] | 4 |  | 126 | 
COC(c1cc(Cl)c2c(c1Cl)C(=O)N(Cc1c(=O)[nH]c(C)c3ccoc13)CC2)C1CN(C)C1 (centres unmarked) [Example 10, 7-((5,8-dichloro-7-(methoxy(1-methylazetidin-3-yl)methyl)-1-oxo-3,4-dihydroisoquinolin-2(1H)-yl)methyl)-4-methylfuro[3,2-c]pyridin-6(5H)-one] |  |  |  | 336
COC(c1cc(Cl)c2c(c1Cl)C(=O)N(Cc1c(=O)[nH]c(C)c3[nH]ccc13)CC2)C1CN(C)C1 (centres unmarked) [Example 11, 5,8-dichloro-7-(methoxy(1-methylazetidin-3-yl)methyl)-2-((7-methyl-5-oxo-5,6-dihydro-1H-pyrrolo[2,3-c]pyridin-4-yl)methyl)-3,4-dihydroisoquinolin-1(2H)-one] | 10 |  |  | 12
COC(c1cc(Cl)c2c(c1Cl)C(=O)N(Cc1c(=O)[nH]c(C)c3sccc13)CC2)C1COC1 (centres unmarked) [Example 12, 4-((5,8-dichloro-7-(methoxy(oxetan-3-yl)methyl)-1-oxo-3,4-dihydroisoquinolin-2(1H)-yl)methyl)-7-methylthieno[2,3-c]pyridin-5(6H)-one] | 37 |  |  | 330
Cc1noc(C)c1-c1cc(Cl)c2c(c1Cl)C(=O)N(Cc1c(=O)[nH]c(C)c3[nH]ccc13)CC2 [Example 13, 5,8-dichloro-7-(3,5-dimethylisoxazol-4-yl)-2-((7-methyl-5-oxo-5,6-dihydro-1H-pyrrolo[2,3-c]pyridin-4-yl)methyl)-3,4-dihydroisoquinolin-1 (2H)-one] | 2 |  |  | 
Cc1noc(C)c1-c1cc(Cl)c2c(c1Cl)C(=O)N(Cc1c(=O)[nH]c(C)c3ccoc13)CC2 [Example 16, 7-((5,8-dichloro-7-(3,5-dimethylisoxazol-4-yl)-1-oxo-3,4-dihydroisoquinolin-2(1H)-yl)methyl)-4-methylfuro[3,2-c]pyridin-6(5H)-one] | 3 |  |  | 7
COC(c1cc(Cl)c2c(c1Cl)C(=O)N(Cc1c(=O)[nH]c(C)c3[nH]ccc13)CC2)C1COC1 (centres unmarked) [Example 17, 5,8-dichloro-7-[methoxy(oxetan-3-yl)methyl]-2-[(7-methyl-5-oxo-1,6-dihydropyrrolo[2,3-c]pyridin-4-yl)methyl]-3,4-dihydroisoquinolin-1-one] | 1 |  |  | 
COC(c1cc(Cl)c2c(c1Cl)C(=O)N(Cc1c(=O)[nH]c(C)c3ccoc13)CC2)C1CS(=O)(=O)C1 (centres unmarked) [Example 18, 7-((5,8-dichloro-7-((1,1-dioxidothietan-3-yl)(methoxy)methyl)-1-oxo-3,4-dihydroisoquinolin-2(1H)-yl)methyl)-4-methylfuro[3,2-c]pyridin-6(5H)-one] | 2 |  |  | 78
Cc1[nH]c(=O)c(CN2CCc3c(Cl)cc(C(C)C4COC4)c(Cl)c3C2=O)c2cc[nH]c12 (centres unmarked) [Example 19, 5,8-dichloro-2-[(7-methyl-5-oxo-1,6-dihydropyrrolo[2,3-c]pyridin-4-yl)methyl]-7-[1-(oxetan-3-yl)ethyl]-3,4-dihydroisoquinolin-1-one] | 2 |  |  | 78
